In patent US8530404B2, “Compounds and methods for treatment of cancer” (FibroGen, Inc., priority 2005, dated 2013):
Like-named read-outs stand apart in the source and are kept apart here. Marks after values point to notes of the source that are not given here.

Tests used:
human H-460 lung tumors = assay: Subcutaneously implanted human H-460 lung tumor mouse xenograft (Example 1); format: in vivo; conditions: for Mean Tumor Weight at Necropsy: day 32
Source text: Immuno-compromised athymic CD-1 nu/nu nude mice males (5-6 weeks old) were used in this study (Charles River Laboratories, Wilmington, Mass.). Animals were maintained in a HEPA-filtered environment during the experimental period. Cages, food, and bedding were autoclaved. Animal diets were obtained from Harlan Teklad (Madison, Wis.). […] The human H460 lung cancer cell line used was obtained from the National Cancer Institute. (Brower et al., (1986) Cancer Res 46:798-806.) Xenografted H-460 tumors are sensitive to chemotherapeutics commonly used in treatment of lung cancer. […] A stock tumor was established by subcutaneously injecting a cell suspension into nude mice. The resulting tumor was maintained in nude mice subcutaneously as tumor stock prior to use. Tumor implantation was performed when the stock tumors were in log phase of growth. Before implantation, tumor tissue was harvested from stock mice and placed in RPMI-1640 medium. Necrotic tissues were dissected away and viable tissues were cut into 1-2 mm^2 pieces. Tumor fragments were then transplanted subcutaneously to the right flank of the nude mice. Treatment (administration of compounds of the present invention) was started when the inoculated tumors reached approximately 100 mm^3, and continued for four weeks. […] [table] Sizes of the primary tumors were measured through the skin with calipers once per week. […] Body weight of the mice in each group was also measured once per week during the experimental period. All animals were sacrificed following thirty-two days of treatment. Primary tumors were excised and weighed on an electronic balance. Blood samples were taken during terminal sacrifice and placed in microhematocrit tubes containing EDTA. Complete Blood Counts (CBC) and reticulocyte analysis were performed with the Cell Dyn 3700 analyzer (Abbott Diagnostics), as described by the manufacturer.

human A549 lung tumors [1] = assay: Subcutaneously implanted human A549 lung tumor mouse xenograft (Example 2); format: in vivo; conditions: for tumor weight at necropsy, Mean / A549 mean tumor volume: 20 mg/kg PO; for increase in mean tumor volume: within 1 week (7 days) from start, 20 mg/kg, vehicle control 45%
Source text: Immuno-compromised athymic CD-1 nu/nu nude mice males (5-6 weeks old) were used in this study (Charles River Laboratories, Wilmington, Mass.). Animals were maintained in a HEPA-filtered environment during the experimental period. Cages, food, and bedding were autoclaved. Animal diets were obtained from Harlan Teklad (Madison, Wis.). […] A stock tumor was established by subcutaneously injecting a cell suspension into nude mice. The resulting tumor was maintained in nude mice subcutaneously as tumor stock prior to use. Tumor implantation was performed when the stock tumors were in log phase of growth. Before implantation, tumor tissue was harvested from stock mice and placed in RPMI-1640 medium. Necrotic tissues were dissected away and viable tissues were cut into 1-2 mm^2 pieces. Tumor fragments were then transplanted subcutaneously to the right flank of the nude mice. Treatment (administration of compounds of the present invention) was started when the inoculated tumors reached approximately 100 mm^3, and continued for four weeks. […] Sizes of the primary tumors were measured through the skin with calipers once per week. […] Body weight of the mice in each group was also measured once per week during the experimental period. All animals were sacrificed following thirty-two days of treatment. Primary tumors were excised and weighed on an electronic balance. Blood samples were taken during terminal sacrifice and placed in microhematocrit tubes containing EDTA. Complete Blood Counts (CBC) and reticulocyte analysis were performed with the Cell Dyn 3700 analyzer (Abbott Diagnostics), as described by the manufacturer. Procedures were carried out as described above for Example 1, with the following changes. The human H-460 lung cancer cell line was replaced by the human A549 lung cancer cell line. Xenografted H460 tumors are characterized by a high growth rate, while xenografted A549 tumors progress substantially more slowly. A549 has been characterized extensively. […] Hanze et al., (2003) Biochem Biophys Res Commun 312:571-577; Wedge et al., (2002) Cancer Res 62:4645-4655; and Abdollahi et al., (2003) Cancer Res 63:8890-8898.) Compound B treatment groups (6 mg/kg, 20 mg/kg) were replaced by compound D treatment groups (6 mg/kg, 20 mg/kg). Other experimental parameters were identical to those described in Example 1 above.

human A549 lung tumors [2] = assay: as above; format: in vivo
BNIP3L gene expression = assay: In vivo BNIP3L gene expression in Swiss Webster mice (quantitative PCR); conditions: Mus musculus, iv, 4 h, single 60 mg/kg i.v. dose, four hours after administration, normalized to 18S
Description: The effects of various compounds of the present invention on the expression of genes associated with tumor growth and progression (e.g., expression of genes associated with anti-proliferative effects) were examined in vivo as follows. In these studies, male Swiss Webster mice (25 g) were administered a single intravenous (i.v.) dose of various compounds (60 mg/kg) of the present invention via the tail vein. Four hours after administration of compound, the kidneys and liver were removed and preserved in RNAlater (Ambion). RNA isolation and cDNA synthesis was carried out as follows. Murine kidney tissue was added to TRIzol (Invitrogen) and homogenized using a 5-mm stainless steel bead for 4 minutes at 25 Hz in a Mixer Mill 300 (Qiagen). Homogenates were extracted with chloroform according to the manufacturer's instructions and aqueous supernatants were isolated. The aqueous supernatants were combined with equal volumes of 70% ethanol and then loaded onto RNeasy Mini spin columns (Qiagen). RNA was isolated according to the manufacturer's instructions.
Synthesis of cDNA from the isolated total RNA was carried out using Omniscript reverse transcriptase (Qiagen) and random primers according to the manufacturer's instructions. Measurement of gene expression levels in compound-treated animals and in vehicle-treated control animals was performed by quantitative PCR using TaqMan Universal PCR Master Mix (Applied Biosystems) and TaqMan Assay-on-Demand assays (Applied Biosystems) in a Prism 7000 system instrument (Applied Biosystems), according to manufacturer's instructions. The assays used were as follows: 18S ribosomal RNA, Hs99999901_s1; BNIP3, Mm00833810_g1; BNIP3L, Mm00786306_s1; NDRG1, Mm00440447_m1. Each PCR amplification reaction included a standard curve and a water blank. Data for gene expression levels for BNIP3, BNIP3L, and NDRG1 were normalized to that of 18S ribosomal RNA within each sample. Data is presented as fold change in specific mRNA levels relative to that of non-treated control animals.

[3] = read-out: fold change in BNIP3L mRNA level, kidney
[4] = read-out: fold change in BNIP3L mRNA level, liver

Structure (SMILES)	mean tumor volume (human H-460 lung tumors; day 0, 20 mg/kg PO) [mm^3]	mean tumor volume (human H-460 lung tumors; day 10, 20 mg/kg PO) [mm^3]	mean tumor volume (human H-460 lung tumors; day 17, 20 mg/kg PO) [mm^3]	mean tumor volume (human H-460 lung tumors; day 24, 20 mg/kg PO)	mean tumor volume (human H-460 lung tumors; day 31, 20 mg/kg PO)	Mean Tumor Weight at Necropsy (human H-460 lung tumors; 20 mg/kg PO) [g]	tumor weight at necropsy, Mean (human A549 lung tumors [1]) [g]	A549 mean tumor volume (human A549 lung tumors [1]; week 0) [mm^3]	A549 mean tumor volume (human A549 lung tumors [1]; week 1) [mm^3]	A549 mean tumor volume (human A549 lung tumors [1]; week 2) [mm^3]	A549 mean tumor volume (human A549 lung tumors [1]; week 3) [mm^3]	A549 mean tumor volume (human A549 lung tumors [1]; week 4) [mm^3]	A549 mean tumor volume (human A549 lung tumors [2]; week 5, 20 mg/kg PO) [mm^3]	A549 mean tumor volume (human A549 lung tumors [2]; week 6, 20 mg/kg PO) [mm^3]	A549 mean tumor volume (human A549 lung tumors [2]; week 7, 20 mg/kg PO) [mm^3]	A549 mean tumor volume (human A549 lung tumors [2]; week 8, 20 mg/kg PO) [mm^3]	A549 mean tumor volume (human A549 lung tumors [2]; week 9, 20 mg/kg PO) [mm^3]	fold induction at 60 mg/kg (BNIP3L gene expression; [3])	increase in mean tumor volume (human A549 lung tumors [1]) [%]	fold induction at 60 mg/kg (BNIP3L gene expression; [4])	further results
O=C(O)CNC(=O)c1nc(Cl)c2ccccc2c1O [Compound A, [(1-Chloro-4-hydroxy-isoquinoline-3-carbonyl)-amino]-acetic acid]	88	730	1376	2499** mm^3	2670** mm^3	3.05	0.76	100	138	173	241	328	375	428	523	547	615				mean tumor volume (human H-460 lung tumors; day 0, 60 mg/kg PO): 105 mm^3; mean tumor volume (human H-460 lung tumors; day 10, 60 mg/kg PO): 895 mm^3; mean tumor volume (human H-460 lung tumors; day 17, 60 mg/kg PO): 1742 mm^3; mean tumor volume (human H-460 lung tumors; day 24, 60 mg/kg PO): 2662* mm^3; mean tumor volume (human H-460 lung tumors; day 31, 60 mg/kg PO): 2968* mm^3; Mean Tumor Weight at Necropsy (human H-460 lung tumors; 60 mg/kg PO): 3.09 g; tumor weight at necropsy, Mean (human A549 lung tumors [2]; 60 mg/kg PO): 0.81 g; A549 mean tumor volume (human A549 lung tumors [2]; week 0, 60 mg/kg PO): 105 mm^3; A549 mean tumor volume (human A549 lung tumors [2]; week 1, 60 mg/kg PO): 133 mm^3; A549 mean tumor volume (human A549 lung tumors [2]; week 2, 60 mg/kg PO): 175 mm^3; A549 mean tumor volume (human A549 lung tumors [2]; week 3, 60 mg/kg PO): 234 mm^3; A549 mean tumor volume (human A549 lung tumors [2]; week 4, 60 mg/kg PO): 324 mm^3; A549 mean tumor volume (human A549 lung tumors [2]; week 5, 60 mg/kg PO): 348 mm^3; A549 mean tumor volume (human A549 lung tumors [2]; week 6, 60 mg/kg PO): 425 mm^3; A549 mean tumor volume (human A549 lung tumors [2]; week 7, 60 mg/kg PO): 514 mm^3; A549 mean tumor volume (human A549 lung tumors [2]; week 8, 60 mg/kg PO): 538 mm^3; A549 mean tumor volume (human A549 lung tumors [2]; week 9, 60 mg/kg PO): 597 mm^3
C[C@H](NC(=O)c1ncc2cc(Oc3ccccc3)ccc2c1O)C(=O)O [Compound B, (S)-2-[(4-Hydroxy-7-phenoxy-isoquinoline-3-carbonyl)-amino]-propionic acid]	108	914	1858	3074 mm^3	3229 mm^3	3.60												1.2			mean tumor volume (human H-460 lung tumors; day 0, 6 mg/kg PO): 101 mm^3; mean tumor volume (human H-460 lung tumors; day 10, 6 mg/kg PO): 884 mm^3; mean tumor volume (human H-460 lung tumors; day 17, 6 mg/kg PO): 1949 mm^3; mean tumor volume (human H-460 lung tumors; day 24, 6 mg/kg PO): 3131 mm^3; mean tumor volume (human H-460 lung tumors; day 31, 6 mg/kg PO): 3343 mm^3; Mean Tumor Weight at Necropsy (human H-460 lung tumors; 6 mg/kg PO): 4.27 g
COc1ccc(Oc2ccc3c(O)c(C(=O)NCC(=O)O)ncc3c2)cc1 [Compound C, {[4-Hydroxy-7-(4-methoxy-phenoxy)-isoquinoline-3-carbonyl]-amino}-acetic acid]	91	638	1365	2239** mm^3	2373** mm^3	2.35	0.50	102	124	152	180	208	246	304	341	402	429	0.9	22	2.6	
Cc1nc(C(=O)NCC(=O)O)c(O)c2ccc(Oc3ccccc3)cc12 [Compound D, [(4-Hydroxy-1-methyl-7-phenoxy-isoquinoline-3-carbonyl)-amino]-acetic acid]							0.58	106	126	148	193	227	272	304	373	411	466	5	20	1.2	tumor weight at necropsy, Mean (human A549 lung tumors [2]; 6 mg/kg PO): 0.51 g; A549 mean tumor volume (human A549 lung tumors [2]; week 0, 6 mg/kg PO): 109 mm^3; A549 mean tumor volume (human A549 lung tumors [2]; week 1, 6 mg/kg PO): 137 mm^3; A549 mean tumor volume (human A549 lung tumors [2]; week 2, 6 mg/kg PO): 178 mm^3; A549 mean tumor volume (human A549 lung tumors [2]; week 3, 6 mg/kg PO): 209 mm^3; A549 mean tumor volume (human A549 lung tumors [2]; week 4, 6 mg/kg PO): 263 mm^3; A549 mean tumor volume (human A549 lung tumors [2]; week 5, 6 mg/kg PO): 292 mm^3; A549 mean tumor volume (human A549 lung tumors [2]; week 6, 6 mg/kg PO): 339 mm^3; A549 mean tumor volume (human A549 lung tumors [2]; week 7, 6 mg/kg PO): 375 mm^3; A549 mean tumor volume (human A549 lung tumors [2]; week 8, 6 mg/kg PO): 431 mm^3; A549 mean tumor volume (human A549 lung tumors [2]; week 9, 6 mg/kg PO): 476 mm^3
O=C(O)CNC(=O)c1ncc2cc(Oc3ccc(F)cc3)ccc2c1O [Compound E, {[7-(4-fluoro-phenoxy)-4-hydroxy-isoquinoline-3-carbonyl]-amino}-acetic acid]																		0.8		1.7	
